{"source": "paper PMC9222498", "about": "(Bioactive Materials, 2022)", "key": {"[1]": {"system": "orthotopic 4T1 breast cancer model", "experiment": "In vivo antitumor activity, orthotopic 4T1 breast cancer model", "parameters": "species or system BALB/c mice", "settings": "10 mg/kg SN38 equiv., i.v., days 0, 3, 6"}, "[2]": {"system": "Carboxylesterase", "settings": "after intravenous administration; ref [51]; cited from earlier work"}, "[3]": {"system": "4T1 spontaneous metastasis model", "experiment": "In vivo antimetastatic activity, 4T1 spontaneous metastasis model", "parameters": "species or system mice", "settings": "Day 24"}}}
{"smiles": "CCc1c2c(nc3ccc(OC(=O)N4CCC(N5CCCCC5)CC4)cc13)-c1cc3c(c(=O)n1C2)COC(=O)[C@]3(O)CC", "note": "[CPT-11, irinotecan]", "values": [{"measurement": "primary tumor growth", "setting": "[1]", "result": "similarly rapid tumor growth compared with the saline-treated group"}, {"measurement": "enzymatic conversion rate to SN38", "setting": "[2]", "result": "< 8", "unit": "%"}, {"measurement": "metastasizing tumor cells in liver and lung (H&E)", "setting": "[3]", "result": "clearly detected metastasizing tumor cells in liver and lung"}, {"measurement": "metastatic burden in lymph nodes (H&E)", "setting": "[3]; ipsilateral inguinal lymph node", "result": "did not significantly reduce the metastatic burden"}]}
